Reference: US20110208153A1, “FORMULATIONS AND METHODS FOR NUTRIENT DELIVERY” (priority 2010, published 2011)

System: pre-retinal neovascularization
Assay: pre-retinal neovascularization in the OIR mouse model following gavage treatments
Type: in vivo
Conditions: for pre-retinal neovascularization relative to vehicle control: P<0.05
Text: FIG. 1 provides a graphical summary of the analysis of pre-retinal neovascularization levels in the mouse model following gavage treatments. The numbers in brackets in the legend refer to gavage doses in g/kg bodyweight/day. An * indicates P-values<0.05.

Compound	pre-retinal neovascularization relative to vehicle control (2.5 g/kg body weight/day)	effect on pre-retinal neovascularization (in words)	pre-retinal neovascularization relative to vehicle control (5 g/kg of body weight/day)
CC/C=C\C/C=C\C/C=C\C/C=C\C/C=C\C/C=C\CCC(=O)O [DHA, docosahexaenoic acid]	49±4%	–	–
arginyl-glutamine dipeptide [Arg-Gln dipeptide]	–	dose-dependent reduction	39±6%
